# “Also recorded” adds a separate entry of the source.
# Key:
# caspase-3 = assay: Cleaved caspase-3 level, western blotting; format: cell-based, human; details: serial Au doses (0, 100, 200, 400, 800 μM), 48 h
# Method: The expression of GPx-1, caspase-3 and PARP from Au25P1_9 treated A549 cells were analyzed by western blotting. A549 cells were prior seeded on 6-well plate (at the density of 1 × 10^5 cells/well) for 24 h. Then the medium was discarded and fresh culture medium with Au25P1_9 at different doses was added to make cells exposed to final Au doses at 0, 100, 200, 400 and 800 μM, respectively. After another 48 h incubation, the cells were harvested and lysed by cell lysis buffer for Western and IP (containing 20 mM Tris-HCl, pH7.5, 150 mM NaCl, 1% Triton X-100, sodium pyrophosphate, β-glycerophosphate, EDTA, Na3VO4 and leupeptin), protease inhibitor cocktail tablet and 1 mM PMSF for 15 min on a shaker at 4 °C. The lysed cells were collected and centrifuged for 15 min at 12,000 g to get total protein of cells. The protein dose of each sample was prior quantified, and then loading buffer was added. After boiling for 5 min, the protein samples with equal amount were separated on 12% SDS polyacrylamide gel electrophoresis and then transferred onto the polyvinylidene difluoride (PVDF) membrane. Membrane was blocked by 5% nonfat dried milk prepared in tris(hydroxymethyl)amin omethane-NaCl-Tween 20 (TBST) at room temperature for 1 h, and then incubated with primary antibodies specific to β-actin, Caspase-3, PARP and GPx-1 at 4 °C overnight, respectively. […]
# A549 cells = assay: Apoptosis evaluation, Annexin V-FITC/PI dual staining; format: cell-based, human; details: 48 h
# Method: Apoptosis detection with Annexin V-FITC/PI fluorescence dual staining was carried out by flow cytometry. Briefly, about 2 mL of 1 × 10^5 cells/mL of A549 cells were seeded in 6-well plate for 24 h before treatment with Au25P1_9 at different Au doses. The cells were treated with Au25P1_9 (Au dose at 0, 100, 200, 400 and 800 μM) for 48 h, respectively. Then culture medium and cells in each well were collected and centrifuged at 1200 rpm for 3 min. The supernatant was discarded and the cells were washed twice with PBS. 195 μL Annexin V-FITC binding buffer was added to re-suspend the cells at a dose of ~5 × 10^5 cells/mL in 1.5 mL Eppendorf tube. 5 μL Annexin V-FITC and 10 μL PI stains were added into each cell suspension, respectively. The tubes were incubated at room temperature under darkness for exactly 15 min. The fluorescence of the cells was determined immediately with flow cytometer. Cells at the early stage of apoptotic process were stained with the Annexin V-FITC alone. Necrotic cells were stained by both the Annexin V-FITC and PI. […] So, the percentage of apoptotic and necrosis cells can be analyzed by Cflow software.
# GPx-1 = GPx-1 enzyme activity suppression in buffer; format: biochemical, bovine; details: 10 min
# Description: The peptides (N2H-CCYGGPEEEEEVG-COOH (named P1), NH2-CCYGGPDDDEDVG-COOH (named P2) and NH2-CCYGGPEEVEEVG-COOH (named P3)) were chemically synthesized by a solid phase method (China Peptides Co. Ltd, Purity: 98%). Hydrogen tetrachloroaurate (III) (HAuCl4·4H2O) was purchased from Sinopharm Chemical Reagent Co. Ltd. Sodium hydroxide (NaOH), nitric acid (HNO3), hydrochloric acid (HCl) and hydrogen peroxide (H2O2) were purchased from Beijing Chemical Reagent Co., China. Human non-small cell lung carcinoma cells (A549 cells), Henrietta Lacks strain of cancer cells (Hela cells) and human colon adenocarcinoma cells (HCT-8 cells) were from Cancer Institute and Hospital, Chinese Academy of Medical Sciences. Fetal bovine serum (FBS) and trypsin-EDTA were obtained from Gibco, USA. Penicillin-streptomycin solution, cell culture medium DMEM and RPMI 1640 were purchased from Hyclone. Hoechst 33342, LysoTracker®Green DND-26, and CM-H2DCFDA were from Molecular Probes, USA. NucView™ 488 Caspase-3 Assay Kit was bought from Biotium, USA. 5,5′,6,6′-tetrachloro-1,1′,3,3′-tetraethylbenzimidazolocarbocyanine iodide (JC-1), cell lysis buffer for Western and IP, phenylmethanesulfonyl fluoride (PMSF) and BCA Protein Assay Kit were obtained from Beyotime Institute of Biotechnology, China. Protease inhibitor cocktail tablets were from Roche Diagnostics, GmbH, Mannheim, Germany. Cell counting kit-8 (CCK-8) reagents and Annexin V-FITC/Propidium (PI) Apoptosis Detection Kit were purchased from Dojindo Laboratories, Japan. GPx from bovine erythrocytes […] was provided by Sigma Aldrich, USA. GPx Activity Colorimetric Assay Kit was provided by Biovision, USA. Anti-GPx-1 antibody was offered by Abcam, UK. PARP antibody, caspase-3 antibody and β-actin antibody were offered by Cell Signaling Technology, USA. Amicon ultra centrifugal filter devices (Merck Millipore, MWCO: 10 kDa) were used for purification steps. Ultrapure Millipore (Mini-Q) water (18.2 MΩ) was used throughout the experiments. […]
# Pure GPx (lyophilized powder, ≥300 units/mg protein) were diluted by GPx sample buffer and incubated with peptide-Au clusters (Au25P1_9, Au25P2_9 and Au25P3_9) at a series of Au dose (0, 25, 100, 400 μM) for 10 min, respectively. […] The GPx activity of untreated samples was set as 100%, and that of peptide-Au clusters treated samples were expressed as a relative percentage of untreated ones.
# Figure S12. Peptide-Au clusters treated GPx-1 activity measured in buffer solution. The decrease in NADPH absorbance measured at 340 nm during the oxidation of NADPH to NADP is the indicative of GPx activity,^1, 2 which is in a dose dependent manner in tube experiments when treated with serial doses of peptide-Au clusters.
sequence,measurement,setting,value
"CCYGGPEEEEEVG [Au25P1_9, Au25 cluster coated by nine P1 peptides (…)]",cleaved caspase-3 level,caspase-3,Au dose-dependent increase of cleaved caspases-3
same,cell apoptosis ratio,"A549 cells; A549, Au25P1_9 dose 100 μM (Au)",5.8%
same,cell apoptosis ratio,"A549 cells; A549, Au25P1_9 dose 800 μM (Au)",15.2%
same,cell apoptosis dose dependence,"A549 cells; A549, Au dose 0, 100, 200, 400, 800 μM",dose-dependent manner
same,GPx-1 activity suppression in buffer,"GPx-1; Au dose 0, 25, 100, 400 μM",exhibits the best suppression capacity for GPx-1; also recorded: the most effective candidate for suppression of GPx-1 activity in buffer and cells
same,GPx-1 activity (relative to untreated = 100%),"GPx-1; buffer, Au dose of 400 μM, GPx Activity Colorimetric Assay Kit, NADPH absorbance at 340 nm",12%

# From article PMC5428013, “Peptide-Au Clusters Induced Tumor Cells Apoptosis via Targeting Glutathione Peroxidase-1: The Molecular Dynamics Assisted Experimental Studies” (Scientific Reports, 2017)
